This experiment relates to CEM cells HIV-1 protection, formazan growth assay. The experiment in a line: NCI AIDS Antiviral Assay. The settings on record: for IC50: measured here: growth of uninfected CEM cells. The procedure, abridged: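 Screen of anti-HIV-1 activity in human CEM cells using a formazan-based growth measurement at five drug concentrations. Hits with 50% or greater protection were repeated, and confirmation required reproducible complete protection.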

Active and inactive are the calls of the source.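 Rule for the calls: active = compounds giving half or more protection of infected cells from virus-caused growth loss, again on retest; inactive = the rest.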

The values below come from PubChem BioAssay AID179 (DTP/NCI, 2004).

Take `CC(C)C(=Nc1ccc(Cl)c(Cl)c1)N(C)C`: the EC50 (as a rule, the concentration that produces a half-maximal response) was more than 200 µM and the 50% inhibitory concentration (IC50) (usually the point on the concentration scale where inhibition reaches its midpoint) was more than 100 µM.
The matching figures for `C1CSCCSCCCSCCSCCCSCCSCCCSCCSC1`: more than 7.08 µM and more than 7.08 µM.
The matching figures for `CN(C)c1ccc(/[N+]([O-])=C/c2cc(=O)c(OS(C)(=O)=O)co2)cc1`: more than 200 µM and 3.09 µM.
Consider `NC(N)=NS(=O)(=O)c1ccc(NC(=O)c2cccn3c(=O)c4ccccc4nc23)cc1`, for which the result was inactive.
With `Cc1cc(C)c(C2=NOC(c3ccccc3)(c3cc(=O)n(-c4ccccc4)s3)O2)c(C)c1` (stereo not given), the EC50 is 8.51 µM and the IC50 stood at 38 µM.
The matching figures for `CN/N=C(\C)C(CN(C)C)C(c1ccccc1)c1c(O)c2ccccc2oc1=O` (stereo not given): more than 135 µM and 102 µM.
For `COC(=O)c1ccc(Cl)cc1NC(=O)C1CCCCC1`, the outcome was inactive.
Take `CC(=O)Nc1ccc(C(=O)n2[nH]c(C)c(/C=C3\C(=O)C=Cc4ccccc43)c2=O)cc1`: the EC50 is more than 87.1 µM and the IC50 came to 42.7 µM.
For `CC(=O)OC1CC2C(C)(C)C(=O)C=C[C@]2(C)C2CCC3(C)C(c4ccoc4)OC(=O)[C@H]4O[C@]43[C@]12C` (stereo not given in full), the result was inactive.
As to `O=c1[nH]cnc2c1ncn2Cc1ccccc1CCO`, the EC50 was more than 93.3 µM and the IC50 is more than 93.3 µM.
Consider `CN1CC2(c3ccccc3)CN(C)CC(c3ccccc3)(C1)C2=O`, for which the EC50 is more than 112 µM and the IC50 was more than 112 µM.
Consider `COC(=O)c1c(C#N)[nH]c(-c2ccsc2)c1C(=O)OC`, for which the EC50 was more than 200 µM and the half-maximal inhibitory concentration (IC50) came out at 52.5 µM.
The matching figures for `O=P(O)(O)C=C=C1CCCCC1`: more than 200 µM and more than 200 µM.
Take `CC(C)(C)OC(=O)N1CCCC1C(=O)N1CCCC1C(=O)Oc1ccccc1` (stereo not given): the EC50 was more than 67.6 µM and the IC50 was more than 67.6 µM.
For `COc1nc(N(C)C)nc2c1n(C)c[n+]2C`, the EC50 is more than 107 µM and the IC50 is 12.6 µM.
The matching figures for `CC1OC2COC(C)OC2C(C2CN2)O1` (stereo not given): more than 933 µM and 589 µM.
The matching figures for `CCOC(=O)/C(=C/c1ccc(C(F)(F)F)cc1)N(CC)CC`: more than 158 µM and 64.6 µM.
The matching figures for `Cn1c(-c2ccccc2)cc(-c2cccs2)c1-c1ccsc1`: more than 200 µM and 182 µM.
For `CC(=O)Nc1ccc(OC(C)(C)C)cc1`, the EC50 is more than 1200 µM and the half-inhibitory concentration (IC50) was more than 1200 µM.
In the case of `COc1ccc(C2c3cc(OC)c(OC)cc3CC3C(=O)OCC32)cc1OC` (stereo not given), the EC50 was more than 200 µM and the IC50 is more than 200 µM.
With `O=[N+]([O-])c1ccc(C2CC(c3ccc(NCc4nc5ccccc5[nH]4)cc3)=NO2)cc1` (stereo not given), the EC50 is more than 9.12 µM and the IC50 was more than 9.12 µM.
As to `O=c1c2nc3ccccc3c(=O)n2ncn1-c1ccccc1Cl`, the EC50 was more than 200 µM and the IC50 is more than 200 µM.
For `CCOC1OC(COC(=O)C(C)(C)C)C(O)CC1n1cc(C)c(=O)[nH]c1=O` (stereo not given), the EC50 is more than 200 µM and the 50% inhibitory concentration (IC50) is more than 200 µM.
On to `O=Nc1ccc(Br)cc1`, for which the result was inactive.
Take `C/C(=N\O)c1ccc2c3c(ccc([N+](=O)[O-])c13)CC2`: the EC50 was more than 200 µM and the half-maximal inhibitory concentration (IC50) was 46.8 µM.
The matching figures for `O=C(O)C1=CC=CC(=C(c2ccc(O)c(C(=O)O)c2)c2ccc(O)c(C(=O)O)c2)C1=O`: more than 380 µM and more than 380 µM.
The matching figures for `CC1(C)CNC(=S)S1`: more than 339 µM and more than 339 µM.
The matching figures for `OC1=CN=C(C2CC2)Oc2ccccc21`: more than 178 µM and 117 µM.
`COC(=O)c1ccccc1C1CN=NC12Cc1ccccc1C2=O` (stereo not given): the EC50 is more than 200 µM and the half-inhibitory concentration (IC50) was 120 µM.
The matching figures for `Cc1ccc(S(=O)(=O)NCCCN(CCCNS(=O)(=O)c2ccc(C)cc2)S(=O)(=O)c2ccc(C)cc2)cc1`: more than 2.45 µM and more than 2.45 µM.
The matching figures for `Cc1ccc(NC(=O)C(=O)C(C#N)c2nc(-c3ccc(-c4ccccc4)cc3)cs2)c(C)c1` (stereo not given): more than 66.1 µM and more than 66.1 µM.
As for `C=C(C)C#CC1(O)C=C(OC)C(OC)=CC1=O` (stereo not given), the EC50 was more than 200 µM and the half-inhibitory concentration (IC50) amounted to 20.9 µM.
`O=C(O/N=C1/CCC/C1=C\c1ccccc1)c1ccc(Cl)c(Cl)c1`: the result was inactive.
Turning to `O=C(CCl)Nc1cccc2ccccc12`, the EC50 was more than 200 µM and the half-maximal inhibitory concentration (IC50) was 3.24 µM.
The matching figures for `Nc1ccn(C2CC3OCC3O2)c(=O)n1` (stereo not given): more than 200 µM and more than 200 µM.
As to `C/C(=N/OC(=O)N(C)C)c1ccc(Cl)cc1Cl`, the EC50 was more than 200 µM and the IC50 worked out at 105 µM.
With `Nc1ncc(C2[C@H](CNC(=O)c3cc(Br)c[nH]3)C(CNC(=O)c3cc(Br)c[nH]3)[C@@H]2c2cnc(N)[nH]2)[nH]1` (stereo not given in full), the result was active.
As for `Cn1cc(NC(=O)Nc2cc(C(=O)Nc3cc(C(=O)Nc4ccc(P(=O)(O)O)c5cc(P(=O)(O)O)ccc45)n(C)c3)n(C)c2)cc1C(=O)Nc1cc(C(=O)Nc2ccc(P(=O)(O)O)c3cc(P(=O)(O)O)ccc23)n(C)c1`, the EC50 was more than 49 µM and the IC50 came to 31.6 µM.
The matching figures for `O=[N+]([O-])c1ccc(NC(=S)Nc2ccccn2)cc1`: more than 200 µM and 19.1 µM.
The matching figures for `CC(=O)Nc1cc2c(cc1[N+](=O)[O-])-c1ccccc1C2=O`: more than 200 µM and more than 200 µM.
The matching figures for `COc1cc2c(cc1OC)C1C3CCCCC3CCN1CC2` (stereo not given): more than 200 µM and 138 µM.
`O=C1c2cc(-c3ccccc3)cnc2S(=O)(=O)N1c1ccc(Br)cc1`: the EC50 is more than 200 µM and the concentration for half-maximal inhibition (IC50) turned out to be 16.6 µM.
The matching figures for `NC(=O)N/N=C(\C(=O)C(=O)Nc1ccc(Cl)c(C(F)(F)F)c1)c1nc2ccc(C(=O)c3ccccc3)cc2[nH]c1=O`: more than 61.7 µM and more than 61.7 µM.
The matching figures for `COc1ccc(/C=C(\Cl)c2ccc(OC)c(OC)c2)cc1OC`: 56.2 µM and more than 200 µM.
For the compound `CN(C)CCNC(=O)c1cccc2c1Oc1c(cccc1[N+](=O)[O-])O2`, the EC50 is more than 20 µM and the IC50 came out at 0.245 µM.
The matching figures for `CCCCCCCCC[C@@H]1C[C@H](O)[C@H](Cc2ccccc2)N1C(=O)OC(C)(C)C`: more than 200 µM and 35.5 µM.
The matching figures for `Cc1cc(CSc2ssc(=S)c2-c2ccccc2)c(CSc2ssc(=S)c2-c2ccccc2)cc1C`: more than 200 µM and more than 200 µM.
The matching figures for `O=C(N/N=C/c1ccc(O)cc1)c1ccc(OCc2nc3ccccc3[nH]2)cc1`: more than 200 µM and more than 200 µM.
Regarding `COc1cccc2c1OCC1Cc3ccccc3OC21` (stereo not given), the outcome was inactive.
`O=c1[nH]nc(Cc2ccccc2)[nH]1`: the EC50 is more than 200 µM and the half-maximal inhibitory concentration (IC50) was more than 200 µM.
For the compound `O=c1scc(-c2ccc([N+](=O)[O-])cc2)s1`, the EC50 was more than 6.03 µM and the IC50 is more than 6.03 µM.
As for `Nc1ncnc2c1N=C(c1ccccc1)CC(c1ccccc1)N2` (stereo not given), the EC50 was more than 200 µM and the half-inhibitory concentration (IC50) is more than 200 µM.
Take `Nc1nc(Cl)cc(NCC2(CO)CC(=O)C2)n1`: the EC50 is more than 200 µM and the IC50 is more than 200 µM.
Turning to `C=C1CCC2(C(C)=O)COC1(C)O2` (stereo not given), the result was inactive.
